# Test results from the SangsterLogP compilation.
# Test: method code SF-HPLC, from DOI: 10.1080/10826079808000494
# Details: pH 6.9
row,logD,SMILES
1,3.54,COCCOC(=O)C1=C(C)NC(C)=C(C(=O)OC(C)C)C1c1cccc2c1OCO2 (stereo not given)
2,2.47,CC1=C(C#N)C(C)(C)C(C#N)=C(C)N1
3,3.75,COC(=O)C1=C(C)NC(C)=C(C(=O)OC(C)C)C1c1cccc2c1OCO2 (stereo not given)
4,2.43,CCOC(=O)C1=C(C)NC(C)=C(C(=O)OC)C1c1cc(OC)c(O)c(OC)c1 (stereo not given)
5,3.2,CCOC(=O)C1=C(C)NC(C)=C(C(=O)OC)C1c1ccc(OC)c(OC)c1 (stereo not given)
6,3.38,CCOC(=O)C1=C(C)NC(C)=C(C(=O)OC)C1c1ccccc1OCOC (stereo not given)
7,4.31,CCOC(=O)C1=C(C)NC(C)=C(C(=O)OC(C)C)C1c1cccc2c1OCO2 (stereo not given)
8,3.17,CCOC(=O)C1=C(C)NC(C)=C(C(=O)OC)C1c1cccc2c1OCCO2 (stereo not given)
9,3.06,COC(=O)C1=C(C)NC(C)=C(C(=O)OC)C1c1cccc2c1OCO2
10,3.74,CCOC(=O)C1=C(C)NC(C)=C(C(=O)OC)C1c1ccccc1 (stereo not given)
11,3.18,CCOC(=O)C1=C(C)NC(C)=C(C(=O)OC)C1c1cccc(OC)c1OC (stereo not given)
12,3.92,CCOC(=O)C1=C(C)NC(C)=C(C(=O)OCC)C1c1cccc2c1OCO2
13,2.99,CCOC(=O)C1=C(C)NC(C)=C(C(=O)OC)C1c1cc(OC)c(OC)c(OC)c1 (stereo not given)
14,3.21,COC(=O)C1=C(C)NC(C)=C(C(=O)OCc2cccnc2)C1c1cccc2c1OCO2 (stereo not given)
15,3.68,CCOC(=O)C1=C(C)NC(C)=C(C(=O)OC)C1c1cc(OC)cc(OC)c1 (stereo not given)
